Assay results published in ChEMBL document CHEMBL5291721, “A preclinical secondary pharmacology resource illuminates target-adverse drug reaction associations of marketed drugs” (Nat Commun, 2023).

Columns and labels:
Estrogen receptor = target: T1, Estrogen receptor (Homo sapiens, UniProt P03372)
T1 sequence (P03372 whole entry): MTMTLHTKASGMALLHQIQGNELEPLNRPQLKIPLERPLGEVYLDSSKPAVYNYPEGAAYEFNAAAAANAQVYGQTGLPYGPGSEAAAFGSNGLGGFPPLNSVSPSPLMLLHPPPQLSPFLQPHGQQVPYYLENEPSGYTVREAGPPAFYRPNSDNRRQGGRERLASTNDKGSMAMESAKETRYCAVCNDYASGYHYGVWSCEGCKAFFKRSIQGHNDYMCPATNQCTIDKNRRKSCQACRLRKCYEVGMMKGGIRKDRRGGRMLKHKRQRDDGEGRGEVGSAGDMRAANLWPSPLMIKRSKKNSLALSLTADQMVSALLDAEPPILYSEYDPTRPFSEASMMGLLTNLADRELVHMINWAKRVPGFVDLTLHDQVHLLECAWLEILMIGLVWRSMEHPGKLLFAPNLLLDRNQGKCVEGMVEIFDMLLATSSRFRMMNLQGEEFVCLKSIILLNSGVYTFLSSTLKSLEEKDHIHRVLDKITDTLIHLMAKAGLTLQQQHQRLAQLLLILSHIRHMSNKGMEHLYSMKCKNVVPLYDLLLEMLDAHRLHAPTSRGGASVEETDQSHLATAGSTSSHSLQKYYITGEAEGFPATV

Cannabinoid receptor 1 [1] = target: T2, Cannabinoid receptor 1 (Homo sapiens, UniProt P21554)
[2] = target: T3, 5-hydroxytryptamine receptor 1A (Homo sapiens, UniProt P08908); assay type: functional, cell-based
T3 sequence (P08908 whole entry): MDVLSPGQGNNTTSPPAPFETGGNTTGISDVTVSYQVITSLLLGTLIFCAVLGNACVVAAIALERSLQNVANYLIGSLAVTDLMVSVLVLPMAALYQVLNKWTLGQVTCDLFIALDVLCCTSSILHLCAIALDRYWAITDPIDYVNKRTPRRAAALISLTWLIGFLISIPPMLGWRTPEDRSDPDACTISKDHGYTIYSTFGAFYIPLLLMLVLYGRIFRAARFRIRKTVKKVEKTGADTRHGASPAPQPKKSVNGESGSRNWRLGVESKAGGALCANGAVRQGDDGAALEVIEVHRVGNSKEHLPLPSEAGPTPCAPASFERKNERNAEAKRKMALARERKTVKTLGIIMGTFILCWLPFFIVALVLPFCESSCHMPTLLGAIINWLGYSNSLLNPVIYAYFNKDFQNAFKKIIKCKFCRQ

Histamine H1 receptor = Histamine H1 receptor (Homo sapiens, UniProt P35367)
[3] = target: T4, Muscarinic acetylcholine receptor M1 (Homo sapiens, UniProt P11229); assay type: functional
T4 sequence (P11229 whole entry): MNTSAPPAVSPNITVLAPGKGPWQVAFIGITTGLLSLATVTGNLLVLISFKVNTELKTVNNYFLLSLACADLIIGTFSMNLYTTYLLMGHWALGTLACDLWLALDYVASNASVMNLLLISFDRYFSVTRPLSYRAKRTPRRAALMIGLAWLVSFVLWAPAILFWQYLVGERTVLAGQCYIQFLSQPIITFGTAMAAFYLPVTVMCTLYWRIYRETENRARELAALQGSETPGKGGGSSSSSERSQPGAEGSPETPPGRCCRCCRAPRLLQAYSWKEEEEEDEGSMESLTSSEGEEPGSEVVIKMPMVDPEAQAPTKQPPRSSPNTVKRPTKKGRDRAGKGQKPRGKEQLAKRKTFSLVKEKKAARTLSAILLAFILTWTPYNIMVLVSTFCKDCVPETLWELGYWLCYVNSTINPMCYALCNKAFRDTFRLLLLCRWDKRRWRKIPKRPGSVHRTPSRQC

[4] = target: T5, Alpha-2B adrenergic receptor (Homo sapiens, UniProt P18089)
T5 sequence (P18089 whole entry): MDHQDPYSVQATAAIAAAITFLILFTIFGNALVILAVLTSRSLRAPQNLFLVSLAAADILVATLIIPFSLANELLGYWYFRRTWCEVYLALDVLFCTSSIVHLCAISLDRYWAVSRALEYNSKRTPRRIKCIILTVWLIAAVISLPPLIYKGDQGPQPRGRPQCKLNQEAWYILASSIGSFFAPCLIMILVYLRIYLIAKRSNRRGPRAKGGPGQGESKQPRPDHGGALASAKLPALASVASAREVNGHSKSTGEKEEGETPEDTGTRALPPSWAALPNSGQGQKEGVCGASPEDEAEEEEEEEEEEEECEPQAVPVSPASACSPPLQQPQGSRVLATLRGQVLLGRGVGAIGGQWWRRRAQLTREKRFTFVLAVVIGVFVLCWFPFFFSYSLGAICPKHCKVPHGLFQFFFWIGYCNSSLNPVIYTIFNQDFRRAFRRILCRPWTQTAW

[5] = target: T6, Alpha-1A adrenergic receptor (Homo sapiens, UniProt P35348); assay type: functional, cell-based
T6 sequence (P35348 whole entry): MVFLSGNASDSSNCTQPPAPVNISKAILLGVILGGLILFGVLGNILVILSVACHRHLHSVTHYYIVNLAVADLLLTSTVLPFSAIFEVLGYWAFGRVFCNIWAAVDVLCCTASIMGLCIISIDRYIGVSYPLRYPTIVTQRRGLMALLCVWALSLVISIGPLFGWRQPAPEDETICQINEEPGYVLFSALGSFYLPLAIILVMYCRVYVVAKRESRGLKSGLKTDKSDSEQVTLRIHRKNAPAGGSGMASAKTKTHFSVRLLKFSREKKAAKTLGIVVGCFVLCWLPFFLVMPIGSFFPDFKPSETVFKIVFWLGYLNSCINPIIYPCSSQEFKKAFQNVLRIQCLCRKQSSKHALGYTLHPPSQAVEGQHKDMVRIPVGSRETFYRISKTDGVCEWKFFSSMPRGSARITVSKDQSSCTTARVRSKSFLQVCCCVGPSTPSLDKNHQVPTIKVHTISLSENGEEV

Cannabinoid receptor 1 [6] = target: T2, Cannabinoid receptor 1; assay type: functional, cell-based
[7] = target: T6, Alpha-1A adrenergic receptor
Cannabinoid receptor 1 [8] = target: T2, Cannabinoid receptor 1; assay type: functional, cell-based; remark: listed apart in the source
[9] = target: Beta-2 adrenergic receptor (Homo sapiens, UniProt P07550); assay type: functional, cell-based
Mu-type opioid receptor = Mu-type opioid receptor (Homo sapiens, UniProt P35372); assay: biochemical; assay type: functional
Further: assay procedure not described here.

Chain of Beta-2 adrenergic receptor (P07550 whole entry): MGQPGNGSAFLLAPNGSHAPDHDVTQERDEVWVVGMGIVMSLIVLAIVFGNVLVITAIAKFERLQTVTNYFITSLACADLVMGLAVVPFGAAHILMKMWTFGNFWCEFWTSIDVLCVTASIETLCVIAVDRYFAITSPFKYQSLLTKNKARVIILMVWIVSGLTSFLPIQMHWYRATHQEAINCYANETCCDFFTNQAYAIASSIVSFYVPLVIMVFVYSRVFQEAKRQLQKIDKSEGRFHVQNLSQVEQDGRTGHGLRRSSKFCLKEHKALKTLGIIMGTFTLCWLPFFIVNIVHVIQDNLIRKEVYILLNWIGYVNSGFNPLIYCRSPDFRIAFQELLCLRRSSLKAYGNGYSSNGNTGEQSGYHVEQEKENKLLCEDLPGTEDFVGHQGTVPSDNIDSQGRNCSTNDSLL
Chain of Histamine H1 receptor (P35367 whole entry): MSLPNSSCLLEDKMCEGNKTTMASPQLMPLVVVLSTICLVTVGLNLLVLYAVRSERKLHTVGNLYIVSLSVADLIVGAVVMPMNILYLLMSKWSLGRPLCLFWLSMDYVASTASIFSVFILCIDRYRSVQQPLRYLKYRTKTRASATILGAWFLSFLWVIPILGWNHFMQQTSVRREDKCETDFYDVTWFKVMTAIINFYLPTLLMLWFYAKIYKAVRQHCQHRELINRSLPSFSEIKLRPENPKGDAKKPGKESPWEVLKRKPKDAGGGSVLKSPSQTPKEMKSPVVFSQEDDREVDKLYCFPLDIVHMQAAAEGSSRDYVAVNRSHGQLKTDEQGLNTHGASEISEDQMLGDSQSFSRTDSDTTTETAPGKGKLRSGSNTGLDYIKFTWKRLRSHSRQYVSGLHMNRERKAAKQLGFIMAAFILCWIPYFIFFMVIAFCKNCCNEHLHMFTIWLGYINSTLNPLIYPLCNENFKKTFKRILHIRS
Chain of Mu-type opioid receptor (P35372 whole entry): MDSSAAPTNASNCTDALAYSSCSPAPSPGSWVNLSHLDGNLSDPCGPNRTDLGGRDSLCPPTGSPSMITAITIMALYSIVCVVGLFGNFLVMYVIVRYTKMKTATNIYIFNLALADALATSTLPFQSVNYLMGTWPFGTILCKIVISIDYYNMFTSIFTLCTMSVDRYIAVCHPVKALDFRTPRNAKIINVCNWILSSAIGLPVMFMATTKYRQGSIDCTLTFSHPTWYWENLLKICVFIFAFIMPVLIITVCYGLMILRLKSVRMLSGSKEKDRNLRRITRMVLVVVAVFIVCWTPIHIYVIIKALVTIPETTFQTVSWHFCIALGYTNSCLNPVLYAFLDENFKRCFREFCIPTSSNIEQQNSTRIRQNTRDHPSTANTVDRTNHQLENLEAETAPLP
T2 sequence (P21554 whole entry): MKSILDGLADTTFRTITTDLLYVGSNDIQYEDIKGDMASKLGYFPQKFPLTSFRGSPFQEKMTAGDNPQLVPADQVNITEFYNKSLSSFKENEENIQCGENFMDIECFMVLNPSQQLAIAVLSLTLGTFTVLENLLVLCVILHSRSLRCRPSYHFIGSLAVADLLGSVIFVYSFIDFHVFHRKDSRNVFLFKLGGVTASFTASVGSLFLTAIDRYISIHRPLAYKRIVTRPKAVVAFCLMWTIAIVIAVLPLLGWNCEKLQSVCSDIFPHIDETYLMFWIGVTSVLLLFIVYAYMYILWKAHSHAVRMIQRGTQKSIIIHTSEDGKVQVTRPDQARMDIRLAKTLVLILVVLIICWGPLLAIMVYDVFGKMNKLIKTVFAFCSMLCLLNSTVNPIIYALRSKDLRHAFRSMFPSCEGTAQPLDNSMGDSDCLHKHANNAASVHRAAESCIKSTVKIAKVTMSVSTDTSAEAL

Row | SMILES | AC50 (Estrogen receptor) | AC50 (Cannabinoid receptor 1 [1]) | AC50 [2] | AC50 (Histamine H1 receptor) | AC50 [3] | AC50 [4] | AC50 [5] | AC50 (Cannabinoid receptor 1 [6]) | AC50 [7] | AC50 (Cannabinoid receptor 1 [8]) | AC50 [9] | AC50 (Mu-type opioid receptor)
1 | Fc1ccc([C@@H]2CCNC[C@H]2COc2ccc3c(c2)OCO3)cc1 [PAROXETINE] | > 30 µM | 2.72 µM | > 10 µM | – | – | – | – | – | – | – | – | –
2 | O=c1c(O)c(-c2ccc(O)c(O)c2)oc2cc(O)cc(O)c12 [QUERCETIN] | > 30 µM | – | > 10 µM | > 10 µM | > 10 µM | > 10 µM | – | – | – | – | – | –
3 | CCC(=O)O[C@](Cc1ccccc1)(c1ccccc1)[C@H](C)CN(C)C [PROPOXYPHENE] | – | > 10 µM | > 10 µM | > 10 µM | > 10 µM | > 10 µM | > 30 µM | > 30 µM | 8.05 µM | > 30 µM | > 30 µM | 0.17 µM
4 | Cc1ccnc2c1NC(=O)c1cccnc1N2C1CC1 [NEVIRAPINE] | – | > 10 µM | > 10 µM | – | – | – | > 30 µM | > 30 µM | > 10 µM | > 30 µM | > 30 µM | –
5 | CCOC(=O)c1ncn2c1CN(C)C(=O)c1cc(F)ccc1-2 [FLUMAZENIL] | > 30 µM | > 30 µM | > 10 µM | – | – | – | > 30 µM | – | > 10 µM | – | – | > 30 µM
6 | Cc1cc(=O)n(-c2ccccc2)n1C [ANTIPYRINE] | > 30 µM | > 10 µM | – | – | – | – | > 30 µM | > 30 µM | > 10 µM | > 30 µM | > 30 µM | –
7 | CCOC(=O)c1ccc(C#Cc2ccc3c(c2)C(C)(C)CCS3)nc1 [TAZAROTENE] | – | > 10 µM | – | > 10 µM | > 10 µM | > 10 µM | > 30 µM | – | > 10 µM | – | > 30 µM | –
8 | COc1cc(C(=O)NC2CCCNC2)cc(OC)c1OC (centres undefined) [TROXIPIDE] | – | – | – | – | – | – | > 30 µM | > 30 µM | – | > 30 µM | – | > 30 µM
9 | NNC(=O)c1ccncc1 [ISONIAZID] | > 30 µM | > 30 µM | > 10 µM | – | – | – | > 30 µM | > 30 µM | > 10 µM | > 30 µM | – | > 30 µM
10 | CC(c1cc2ccccc2s1)N(O)C(N)=O (centres undefined) [ZILEUTON] | > 30 µM | > 10 µM | – | – | – | – | > 30 µM | > 30 µM | > 10 µM | > 30 µM | – | –
11 | CC(C)NC[C@H](O)COc1ccc(CC(N)=O)cc1 [ESATENOLOL] | > 30 µM | – | > 10 µM | – | – | – | – | – | > 10 µM | – | – | –
12 | Cc1cc(C)nc(NS(=O)(=O)c2ccc(N)cc2)n1 [SULFAMETHAZINE] | – | > 10 µM | > 10 µM | – | – | – | – | – | > 30 µM | – | – | > 30 µM
13 | C[C@]12C/C(=C/O)C(=O)C[C@@H]1CC[C@@H]1[C@@H]2CC[C@@]2(C)[C@H]1CC[C@]2(C)O [OXYMETHOLONE] | > 30 µM | – | – | – | – | – | > 30 µM | > 30 µM | – | > 30 µM | > 30 µM | > 30 µM
14 | CCCN(CCC)S(=O)(=O)c1ccc(C(=O)O)cc1 [PROBENECID] | – | > 10 µM | > 10 µM | – | – | – | – | – | > 10 µM | – | – | –
15 | O=C(O)CCNC(=O)c1ccc(/N=N/c2ccc(O)c(C(=O)O)c2)cc1 [BALSALAZIDE] | > 30 µM | > 30 µM | > 30 µM | – | – | – | – | – | > 30 µM | – | – | > 30 µM
16 | NC(=O)NC(=O)Cc1ccccc1 [PHENACEMIDE] | > 10 µM | > 10 µM | > 10 µM | – | – | – | – | – | > 10 µM | – | – | –
17 | COc1ccc2cc(CCC(C)=O)ccc2c1 [NABUMETONE] | – | > 10 µM | > 10 µM | – | – | – | > 30 µM | – | > 30 µM | – | – | > 30 µM
18 | CCCCCCCC(=O)CC[C@@H]1[C@@H](C/C=C\CCCC(=O)OC(C)C)[C@@H](O)C[C@H]1O [UNOPROSTONE ISOPROPYL] | – | – | – | > 30 µM | > 30 µM | – | – | – | – | – | – | –
19 | COc1ccc(C2C(=O)c3ccccc3C2=O)cc1 [ANISINDIONE] | > 30 µM | > 10 µM | > 10 µM | – | – | – | – | – | > 30 µM | – | – | > 30 µM
20 | CCN1CC(CCN2CCOCC2)C(c2ccccc2)(c2ccccc2)C1=O (centres undefined) [DOXAPRAM] | – | – | > 30 µM | – | – | – | > 30 µM | > 30 µM | – | > 30 µM | – | > 30 µM
21 | CCOC(=O)C(C)(C)Oc1ccc(Cl)cc1 [CLOFIBRATE] | > 30 µM | > 10 µM | > 10 µM | – | – | – | > 30 µM | > 30 µM | > 10 µM | > 30 µM | > 30 µM | –
22 | COc1cc(N)c(Cl)cc1C(=O)NC1CCN(CCCOc2ccc(F)cc2)CC1OC (centres undefined) [CISAPRIDE] | > 30 µM | > 10 µM | > 10 µM | – | – | – | – | > 30 µM | 0.593 µM | > 30 µM | > 30 µM | –
23 | C[C@@H]1C[C@H]2[C@@H]3CCC4=CC(=O)C=C[C@]4(C)[C@@]3(F)[C@@H](O)C[C@]2(C)[C@@]1(O)C(=O)CO [DEXAMETHASONE] | – | > 10 µM | > 10 µM | – | – | – | – | – | > 30 µM | – | – | > 30 µM
24 | O=C(CCCN1CCC(O)(c2ccc(Br)cc2)CC1)c1ccc(F)cc1 [BROMPERIDOL] | > 30 µM | – | 1.2 µM | – | 20 µM | – | 0.28 µM | > 30 µM | – | > 30 µM | > 30 µM | 2 µM
25 | CCC1(CCC(C)C)C(=O)NC(=O)NC1=O [AMOBARBITAL] | – | > 10 µM | > 10 µM | – | – | – | – | – | > 10 µM | – | – | –
26 | O=C1Nc2ccc(Cl)cc2C(c2ccccc2Cl)=NC1O (centres undefined) [LORAZEPAM] | > 30 µM | > 10 µM | > 10 µM | – | – | – | > 30 µM | > 30 µM | > 10 µM | > 30 µM | > 30 µM | –
